In patent publication US20060116403A1, “Therapeutic target and uses thereof” (priority 2002, published 2006):

Experiments:
human LDL [1] = experiment: Gel Mobility Shift Assay of core protein labelled proteoglycans binding to human LDL
Experimental: A new approach to these studies is now used in which the proteoglycan core proteins are metabolically radio-labelled and used to study the binding of human LDL. Cells are incubated with Translabel® (ICN Biochemicals) (^35S-methioinine and cysteine amino acids) and the amino acids are incorporated into the core proteins.
Core protein labelled proteoglycans were isolated by DEAE sepharose ion exchange chromatography and then the binding to human LDL was studied in a Gel Mobility Shift Assay in which a set amount of radiolabeled proteoglycan is incubated with various amounts of LDL and then the bound and free proteoglycans are separated on a flat bed agarose gel.

[2] = system: saphenous vein vascular smooth muscle cells; conditions: saphenous vein VSMC
Experimental: Cultures of vascular smooth muscle cells from human saphenous veins samples obtained (with Ethics approval) from Cardiac Theatres at the Alfred Hospital were prepared.

human LDL [3] = experiment: LDL affinity chromatography of radiolabeled proteoglycans; type: cell-based; conditions: for effect on increased LDL binding of proteoglycans from PDGF treated cells: PDGF 50 ng/ml, imatinib 1 μM, genistein 100 μM
Experimental: Human blood samples were obtained from healthy subjects. LDL (d=1.019−1.063 g/ml) was purified from blood by sequential density gradient ultracentrifugation as described by Heinecke, J. W., Baker, L., Rosen, H. & Chait, A. Superoxide-mediated modification of low density lipoprotein by arterial smooth muscle cells. J Clin Invest 77, 757-61 (1986). The interaction of total pooled intact proteoglycan preparations with native human LDL was assessed using LDL affinity chromatography, providing a measure of binding capacity. […] Sepharose was prepared in the presence of excess heparin to protect the GAG binding sites. The columns were washed with HEPES buffer above and then with 1M NaCl to remove heparin. Each sample (80,000 cpm) was applied to a separate column. The columns were washed extensively with low salt buffer then eluted (5×0.5 ml) with 1M NaCl to elute bound proteoglycans. Finally the columns were stripped with high salt, high urea buffer. The aggregate radioactivity retained by the LDL column after extensive washing and eluted with 1M NaCl was determined as the binding capacity for the column.
We observed a 36% increase in the binding capacity of proteoglycans in PDGF treated cells compared to untreated cells (FIG. 5).

[4] = system: human vascular smooth muscle cells (internal mammary artery); experiment: 35S-sulfate incorporation into total secreted proteoglycans (CPC precipitation); type: cell-based; conditions: for inhibition of PDGF-stimulated component of proteoglycan production: imatinib 1 μM, genistein 100 μM
Experimental: The Human Ethics Committee of the Alfred Hospital and Baker Heart Research Institute approved the acquisition of tissue.
Cells were metabolically labeled with [^35S]-sulfate ([…]) for the final 24 h.
(§1) The culture media were collected and each plate rinsed with Dulbecco's PBS (0.25 ml). Aliquots (50 μl) of the media sample were spotted in duplicate on 30×15 mm rectangles of Whatman® 3M chromatography paper (Aldrich, Milwaukee, U.S.A.). The paper was washed five times in a solution containing cetylpyridinium chloride (CPC, 1% w/v) and NaCl (50 mM). Following air drying at room temperature, the paper from each sample was placed in liquid scintillation fluid (Packard, Groningen, The Netherlands) and radioactivity counted in a Beckman Coulter liquid scintillation analyzer (Fullerton, U.S.A). Counts from cells labeled with [^35S]-sulfate and Tran^35SLabel represented total sulfated GAGs and total core protein respectively.

[5] = system: human vascular smooth muscle cells; experiment: Proteoglycan core protein synthesis (35S-methionine/cysteine, CPC precipitation); type: cell-based
Experimental: as §1
Effects on core protein biosynthesis can be evaluated by metabolically labeling the cells with labeled amino acids (^35S-methionine/cysteine) and using an isolation technique “CPC precipitation” which is specific for isolating proteoglycans. Thus, cells were treated identically to the above experiments but labeled with ^35S-methionine/cysteine. […]. Core protein biosynthesis was stimulated by PDGF (FIG. 5; […].

[6] = system: human vascular smooth muscle cells; experiment: Xyloside-initiated GAG chain synthesis and size; type: cell-based; conditions: xyloside 0.5 mM; for effect on increase in size of GAG chains on xyloside, PDGF: PDGF treated cells
Experimental: To study glycosaminoglycan (GAG) synthesis, cells were treated with exogenous xyloside which acts as an artificial and alternative substrate for the enzymes which normally catalyze the initiation of GAG chains on the protein core Nigro J et al (2002)) and Moses, J., Oldberg, A. & Fransson, L. A. Initiation of galactosaminoglycan biosynthesis. Separate galactosylation and dephosphorylation pathways for phosphoxylosylated decorin protein and exogenous xyloside. Eur J Biochem 260, 879-84 (1999)) generating free xyloside-initiated GAG chains. β-D-Xylopyranoside (xyloside) (0.5 mM) was prepared in DMEM with FBS (0.1%) and DMSO (0.1%). […] Cells were metabolically labeled with [^35S]-sulfate (50 μCi/well) for 24 hours.
SDS-PAGE gels were prepared following the procedure of Laemelli (Laemmli, U.K. Cleavage of structural proteins during the assembly of the head of bacteriophage T4. Nature 227, 680-5 (1970)) on 4-13% linear gradient separating gels for intact proteoglycans and 4-20% separating gels for cleaved chains and xyloside-initiated GAGs, with a 3.5% stacking gel. For the estimation of apparent relative masses (MrS) ^14C high molecular weight standards (GIBCO BRL, Grand Island, U.S.A) were run in separate lanes.
Cell cultures supplemented with xyloside synthesize the normal family of proteoglycans but also free GAG chains which are synthesized on the xyloside acting as a “false acceptor” for GAG initiation. […] The analysis of the production of the xyloside-initiated GAG chains therefore represents an independent assay of the activity of the GAG elongation process which normally determine the length of GAGs on proteoglycans. […]. GAG chains produced on xyloside are considerably smaller than free GAG chains synthesized on and released from proteoglycans (compare FIG. 2 right panel with FIG. 3 lower panel). The band at the bottom of the SDS-PAGE is the GAG chains initiated on xyloside. Genistein and daidzein have no effect on the size of the GAGs either under basal or PDGF stimulated conditions. […].

[7] = system: vascular smooth muscle cells; experiment: Sepharose 6B size exclusion chromatography of cleaved GAG chains; type: cell-based, human
[8] = system: vascular smooth muscle cells; conditions: cited from earlier work
K562 cells = experiment: Inhibition of K562 cell proliferation; type: cell-based
Excerpt: K562 cells are Philadelphia chromosome tumour cells in which constitutively active cAbl (but possibly other pathways) drive the cell proliferation. […] These cells provide an assay to discriminate inhibition of tyrosine kinases in a whole cell assay.

cAbl kinase = cAbl kinase (Homo sapiens, UniProt P00519); experiment: Direct assay of cAbl kinase activity; type: biochemical
Chain of cAbl kinase (P00519 whole entry): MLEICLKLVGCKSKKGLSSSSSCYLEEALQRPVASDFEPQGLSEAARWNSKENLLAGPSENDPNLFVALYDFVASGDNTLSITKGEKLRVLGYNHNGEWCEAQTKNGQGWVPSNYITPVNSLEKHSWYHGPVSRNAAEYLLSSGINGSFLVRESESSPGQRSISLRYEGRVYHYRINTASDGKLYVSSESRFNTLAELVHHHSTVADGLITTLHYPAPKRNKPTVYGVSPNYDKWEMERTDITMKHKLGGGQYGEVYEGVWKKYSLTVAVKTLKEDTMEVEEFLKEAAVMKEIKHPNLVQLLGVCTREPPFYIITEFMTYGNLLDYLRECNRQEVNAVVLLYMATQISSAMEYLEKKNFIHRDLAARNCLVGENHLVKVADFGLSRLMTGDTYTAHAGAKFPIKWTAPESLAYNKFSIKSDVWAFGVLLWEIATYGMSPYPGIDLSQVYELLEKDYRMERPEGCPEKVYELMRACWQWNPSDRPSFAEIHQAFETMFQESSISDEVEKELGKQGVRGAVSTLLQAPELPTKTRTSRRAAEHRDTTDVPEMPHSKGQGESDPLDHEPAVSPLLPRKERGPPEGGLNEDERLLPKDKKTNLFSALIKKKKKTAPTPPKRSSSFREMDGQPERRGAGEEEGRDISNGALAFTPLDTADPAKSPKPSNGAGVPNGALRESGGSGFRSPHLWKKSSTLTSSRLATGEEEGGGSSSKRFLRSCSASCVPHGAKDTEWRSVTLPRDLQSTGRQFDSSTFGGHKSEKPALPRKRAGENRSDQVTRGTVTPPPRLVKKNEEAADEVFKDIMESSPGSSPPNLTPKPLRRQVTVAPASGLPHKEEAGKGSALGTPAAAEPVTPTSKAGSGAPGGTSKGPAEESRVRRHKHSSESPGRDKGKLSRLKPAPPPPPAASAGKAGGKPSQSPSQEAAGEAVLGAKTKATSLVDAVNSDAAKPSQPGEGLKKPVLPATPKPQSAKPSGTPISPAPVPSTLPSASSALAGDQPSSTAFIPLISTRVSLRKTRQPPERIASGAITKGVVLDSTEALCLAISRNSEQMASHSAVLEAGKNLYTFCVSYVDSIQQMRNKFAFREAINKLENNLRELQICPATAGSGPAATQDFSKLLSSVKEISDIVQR
Experimental: The direct cAbl kinase inhibitory activity of several compounds was evaluated.

[9] = system: human vascular smooth muscle cells; experiment: Size of proteoglycans and cleaved GAG chains by SDS-PAGE; type: cell-based
Experimental: DEAE-Sephacel columns were prepared as previously described 19 and were washed with low salt buffer containing 8 M urea, 0.25 M NaCl, 0.02 M disodium EDTA and 0.5% Triton X-100. The media of 3 identical treatments was pooled and applied to the column. The columns were washed with low salt buffer to remove non-proteoglycan associated radioactivity. Fractions were collected with high salt buffer containing 8 M urea, 3 M NaCl, 0.02 M disodium EDTA and 0.5% Triton X-100.
Samples were prepared for SDS-PAGE by set counts so that the amount of radioactivity applied to the gel was the same for each treatment.
Proteoglycans eluted from DEAE columns and precipitated once with ethanol/potassium acetate solution were treated with sodium borohydride (1 M) in NaOH (50 mM) for 4 h at 45° C. to release the GAG chains. The free GAG chains were precipitated with the ethanol/potassium acetate solution and analyzed for size by SDS-PAGE.
For the estimation of apparent relative masses (MrS) ^14C high molecular weight standards (GIBCO BRL, Grand Island, U.S.A) were run in separate lanes.
The labeled proteoglycans, cleaved chains, xyloside-initiated GAGs and standard proteins were exposed (3 days) to a Fujifilm imaging plate (Fuji Photo Film Co., Japan) and the imaging plate scanned by the Bio-imaging analyzer BAS-1000 MacBas (Fuji Photo Film Co., Japan).

[10] = Homo sapiens, 24 h, read-out: inhibition of basal proteoglycan production

Cc1ccc(NC(=O)c2ccc(CN3CCN(C)CC3)cc2)cc1Nc1nccc(-c2cccnc2)n1 [imatinib, 4-[(4-methyl-1-piperazinyl)methyl]-N-[4-methyl-3-[[4-(3-pyridinyl)-2-pyrimidinyl]amino-phenyl]benzamide methanesulfonate]
decrease in LDL binding affinity (human LDL [1]; basal): three fold | effect on GAG length (SDS-PAGE mobility) [2]: shortens | effect on increased LDL binding of proteoglycans from PDGF treated cells (human LDL [3]): completely abolished | inhibition at 1 µM [4, 10]: 56% | inhibition of PDGF-stimulated component of proteoglycan production ([4]; PDGF 50 ng/ml): totally blocked | effect on PDGF-stimulated core protein biosynthesis [5]: attenuated | effect on basal proteoglycan core protein biosynthesis [5]: very small but not statistically significant inhibitory effect | effect on combined production of proteoglycans and xyloside-initiated GAG chains [6]: essentially identical | effect on increase in size of GAG chains on xyloside, PDGF [6]: completely prevented | effect on size of GAG chains on xyloside, basal [6]: slightly reduced

PDGF: human recombinant platelet derived growth factor-BB, growth factor stimulus
half-maximal saturation concentration of LDL, PDGF stimulated cells (human LDL [1]; PDGF stimulated): 25 µg/mL | increase in LDL binding capacity of proteoglycans (human LDL [3]; PDGF treated cells compared to untreated cells): 36% | increase of proteoglycan production ([4]; PDGF 50 ng/ml): approximately two-fold | Kav of cleaved GAG chains, PDGF stimulated [7]: 0.45

O=c1c(-c2ccc(O)cc2)coc2cc(O)cc(O)c12 [genistein, 4′,5,7-trihydroxyisoflavone]
effect on total proteoglycan production ([8]; Primate VSMC in culture): inhibited | effect on basal expression of versican mRNA and core protein ([8]; basal): almost completely abolishes | effect on GAG length [8]: no effect | effect on increased LDL binding of proteoglycans from PDGF treated cells (human LDL [3]): does not prevent | inhibition at 100 µM [4, 10]: 64% | inhibition of PDGF-stimulated component of proteoglycan production ([4]; PDGF 50 ng/ml): less inhibitory than imatinib | concentration of maximal effect on proteoglycan production ([4]; dose response curves): 100 µM | inhibition of K562 cell proliferation (K562 cells): little or no inhibitory activity | effect on PDGF-stimulated core protein biosynthesis [5]: attenuated | effect on basal proteoglycan core protein biosynthesis [5]: reduced | inhibition of cAbl kinase activity (cAbl kinase): little activity | potency against cAbl relative to imatinib (times less potent) (cAbl kinase): 160 times | effect on combined production of proteoglycans and xyloside-initiated GAG chains [6]: essentially identical | effect on increase in size of GAG chains on xyloside, PDGF [6]: no effect | effect on size of GAG chains on xyloside, basal [6]: no effect | effect on elongation of GAG chains stimulated by PDGF ([9]; PDGF treated cells): no effect | effect on size of GAG chains released from proteoglycans, basal ([9]; basal (untreated cells)): no effect | effect on proteoglycan size (SDS-PAGE) ([9]; basal and PDGF treated cells, imatinib 1 μM, genistein/daidzein 100 μM): no effect
